Data reported in article PMC6151695, “Novel Selective Estrogen Receptor Ligand Conjugates Incorporating Endoxifen-Combretastatin and Cyclofenil-Combretastatin Hybrid Scaffolds: Synthesis and Biochemical Evaluation” (Molecules : A Journal of Synthetic Chemistry and Natural …, 2017).
Marks after values point to notes of the source that are not given here.

Experiments:
[1] = tested on: NCI-H460; assay: NCI60 in vitro screen, Non-Small Cell Lung Cancer; type: cell-based, human
[2] = physchem; details: buffer
[3] = tested on: UACC-257; assay: NCI60 in vitro screen, Melanoma; type: cell-based, human
[4] = tested on: HCT-15; assay: NCI60 in vitro screen, Colon Cancer; type: cell-based, human
[5] = tested on: IGROV1; assay: NCI60 in vitro screen, Ovarian cancer; type: cell-based, human
[6] = tested on: MCF-7 human breast cancer cell line; assay: Alamar Blue assay for antiproliferative effects; type: cell-based; details: Homo sapiens, MCF7, 72 h, MCF-7, 72 h, Alamar Blue; read-out: IC50 (μM), antiproliferative effects
[7] = tested on: OVCAR-8; assay: NCI60 in vitro screen, Ovarian cancer; type: cell-based, human
[8] = tested on: COLO 205; assay: NCI60 in vitro screen, Colon Cancer; type: cell-based, human
[9] = tested on: MCF-7; assay: cells; details: Homo sapiens
[10] = tested on: RXF 393; assay: NCI60 in vitro screen, Renal cancer; type: cell-based, human
[11] = tested on: HOP-92; assay: NCI60 in vitro screen, Non-Small Cell Lung Cancer; type: cell-based, human
[12] = tested on: SK-OV-3; assay: NCI60 in vitro screen, Ovarian cancer; type: cell-based, human
[13] = tested on: SK-MEL-28; assay: NCI60 in vitro screen, Melanoma; type: cell-based, human
[14] = tested on: NCI-H332M; assay: NCI60 in vitro screen, Non-Small Cell Lung Cancer; type: cell-based, human
[15] = tested on: MDA-MB-435; assay: NCI60 in vitro screen, Melanoma; type: cell-based, human
[16] = tested on: UO-31; assay: NCI60 in vitro screen, Renal cancer; type: cell-based, human
[17] = tested on: BT-549; assay: NCI60 in vitro screen, Breast cancer; type: cell-based, human
[18] = tested on: ACHN; assay: NCI60 in vitro screen, Renal cancer; type: cell-based, human
[19] = tested on: U251; assay: NCI60 in vitro screen, CNS Cancer; type: cell-based, human
[20] = tested on: HT29; assay: NCI60 in vitro screen, Colon Cancer; type: cell-based, human
[21] = tested on: K-562; assay: NCI60 in vitro screen, Leukemia; type: cell-based, human
[22] = tested on: SN12C; assay: NCI60 in vitro screen, Renal cancer; type: cell-based, human
[23] = tested on: KM12; assay: NCI60 in vitro screen, Colon Cancer; type: cell-based, human
[24] = tested on: SK-MEL-5; assay: NCI60 in vitro screen, Melanoma; type: cell-based, human
[25] = tested on: MDA-MB-231/ATCC; assay: NCI60 in vitro screen, Breast cancer; type: cell-based, human
[26] = tested on: UACC-62; assay: NCI60 in vitro screen, Melanoma; type: cell-based, human
[27] = tested on: A498; assay: NCI60 in vitro screen, Renal cancer; type: cell-based, human
[28] = tested on: SK-MEL-2; assay: NCI60 in vitro screen, Melanoma; type: cell-based, human
[29] = tested on: HCT-2998; assay: NCI60 in vitro screen, Colon Cancer; type: cell-based, human
[30] = tested on: NCI/ADR-RES; assay: NCI60 in vitro screen, Ovarian cancer; type: cell-based, human
[31] = tested on: M14; assay: NCI60 in vitro screen, Melanoma; type: cell-based, human
[32] = tested on: HS 578T; assay: NCI60 in vitro screen, Breast cancer; type: cell-based, human
[33] = tested on: OVCAR-4; assay: NCI60 in vitro screen, Ovarian cancer; type: cell-based, human
[34] = tested on: A549/ATCC; assay: NCI60 in vitro screen, Non-Small Cell Lung Cancer; type: cell-based, human
[35] = tested on: SR; assay: NCI60 in vitro screen, Leukemia; type: cell-based, human
[36] = tested on: SF-268; assay: NCI60 in vitro screen, CNS Cancer; type: cell-based, human
[37] = tested on: SNB-19; assay: NCI60 in vitro screen, CNS Cancer; type: cell-based, human

CC/C(=C(\c1ccccc1)c1ccc(OCCN(C)C(=O)CCC(=O)Oc2cc(/C=C\c3cc(OC)c(OC)c(OC)c3)ccc2OC)cc1)c1ccccc1 (mixture of isomers) [Compound 16a, N-{2-[4-((Z)-1,2-Diphenylbut-1-enyl)phenoxy]ethyl}-N-methylsuccinamic acid 2-methoxy-5-[(Z)-2-(3,4,5-trimethoxyphenyl)vinyl]phenyl ester]
GI50 ([1]; Homo sapiens, NCI-H460): 29.9 nM
Growth % (10^−5 M) ([1]; NCI-H460, 10 μM): −6.77 ^e %
half-life at 14.6 µg/mL [2]: > 20 h
GI50 ([3]; Homo sapiens, UACC-257): > 10000 nM
Growth % (10^−5 M) ([3]; UACC-257, 10 μM): 48.73%
Growth % (10^−5 M) ([4]; HCT-15, 10 μM): 0.71%
GI50 ([4]; Homo sapiens, HCT-15): 24.5 nM
inhibition at 10 µM ([4]; Homo sapiens, HCT-15, one-dose, 10 μM, read-out: growth inhibition): 99%
GI50 ([5]; Homo sapiens, IGROV-1, IGROV1): 47.3 nM
Growth % (10^−5 M) ([5]; IGROV1, 10 μM): −26.34 ^e %
IC50 [6]: 0.09 µM
GI50 ([7]; Homo sapiens, OVCAR-8): 49 nM
Growth % (10^−5 M) ([7]; OVCAR-8, 10 μM): 12.79%
Growth % (10^−5 M) ([8]; COLO 205, 10 μM): −55 ^e %
GI50 ([8]; Homo sapiens, COLO 205): 378 nM
GI50 ([9]; MCF7): 34.5 nM
IC50 ([9]; MCF7, read-out: GI50 (IC50)): 36 nM
inhibition at 10 µM ([9]; MCF7, read-out: growth inhibition): 90%
GI50 ([10]; Homo sapiens, RXF 393): 39.8 nM
Growth % (10^−5 M) ([10]; RXF 393, 10 μM): 12.08%
Growth % (10^−5 M) ([11]; HOP-92, 10 μM): 58.55%
GI50 ([11]; Homo sapiens, HOP-92): < 10 nM
GI50 ([12]; Homo sapiens, SK-OV-3): 36.8 nM
Growth % (10^−5 M) ([12]; SK-OV-3, 10 μM): 17.23%
GI50 ([13]; Homo sapiens, SK-MEL-28): < 10 nM
Growth % (10^−5 M) ([13]; SK-MEL-28, 10 μM): 89.31%
Growth % (10^−5 M) ([14]; 10 μM): 57.18%
GI50 ([14]; Homo sapiens): 67.2 nM
GI50 ([15]; Homo sapiens, MDA-MB-435): < 10 nM
Growth % (10^−5 M) ([15]; MDA-MB-435, 10 μM): −16.61 ^e %
GI50 ([16]; Homo sapiens, UO-31): 88.4 nM
Growth % (10^−5 M) ([16]; UO-31, 10 μM): 31.52%
Growth % (10^−5 M) ([17]; BT-549, 10 μM): 7.07%
GI50 ([17]; Homo sapiens, BT-549): 43.8 nM
inhibition at 10 µM ([17]; Homo sapiens, BT-549, one-dose, 10 μM, read-out: growth inhibition): 94%
Growth % (10^−5 M) ([18]; 10 μM): 22.73%
GI50 ([18]; Homo sapiens): 45.5 nM
GI50 ([19]; Homo sapiens, U-251, U251): 31.6 nM
inhibition at 10 µM ([19]; Homo sapiens, U-251, U251, one-dose, 10 μM, read-out: growth inhibition): 90%
Growth % (10^−5 M) ([19]; U251, 10 μM): 10.13%
Growth % (10^−5 M) ([20]; HT29, 10 μM): 6.79%
GI50 ([20]; Homo sapiens, HT-29, HT29): 489 nM
inhibition at 10 µM ([20]; Homo sapiens, HT-29, HT29, one-dose, 10 μM, read-out: growth inhibition): 93%
GI50 ([21]; Homo sapiens, K562, K-562): < 10 nM
Growth % (10^−5 M) ([21]; K-562, 10 μM): 41.7%
Growth % (10^−5 M) ([22]; 10 μM): 31.84%
GI50 ([22]; Homo sapiens): 57.6 nM
GI50 ([23]; Homo sapiens, KM12): < 10 nM
Growth % (10^−5 M) ([23]; KM12, 10 μM): −37 ^e %
GI50 ([24]; Homo sapiens, SK-MEL-5): 20.1 nM
Growth % (10^−5 M) ([24]; SK-MEL-5, 10 μM): −34.34 ^e %
Growth % (10^−5 M) ([25]; 10 μM): 23.19%
GI50 ([25]; Homo sapiens): 28.6 nM
GI50 ([26]; Homo sapiens, UACC-62): 18.1 nM
Growth % (10^−5 M) ([26]; UACC-62, 10 μM): 25.13%
Growth % (10^−5 M) ([27]; A498, 10 μM): 29.47%
GI50 ([27]; Homo sapiens, A498): 58.1 nM
GI50 ([28]; Homo sapiens, SK-MEL-2): > 10000 nM
Growth % (10^−5 M) ([28]; SK-MEL-2, 10 μM): 37.97%
Growth % (10^−5 M) ([29]; HCT-2998, 10 μM): 4.72%
inhibition at 10 µM ([29]; Homo sapiens, HCC-2998, one-dose, 10 μM, read-out: growth inhibition): 95%
GI50 ([29]; Homo sapiens, HCT-2998): 31.7 nM
Growth % (10^−5 M) ([30]; 10 μM): −41.32 ^e %
GI50 ([30]; Homo sapiens): 11.1 nM
GI50 ([31]; Homo sapiens, M14): 12.9 nM
inhibition at 10 µM ([31]; Homo sapiens, M14, one-dose, 10 μM, read-out: growth inhibition): 99%
Growth % (10^−5 M) ([31]; M14, 10 μM): 1.39%
Growth % (10^−5 M) ([32]; 10 μM): 17.57%
GI50 ([32]; Homo sapiens): 25.5 nM
GI50 ([33]; Homo sapiens, OVCAR-4): 62.8 nM
Growth % (10^−5 M) ([33]; OVCAR-4, 10 μM): 30.96%
Growth % (10^−5 M) ([34]; 10 μM): 18.56%
GI50 ([34]; Homo sapiens): 59 nM
Growth % (10^−5 M) ([35]; 10 μM): 29.68%
GI50 ([35]; Homo sapiens): 18.9 nM
GI50 ([36]; Homo sapiens, SF-268): 25.3 nM
Growth % (10^−5 M) ([36]; SF-268, 10 μM): 18.51%
GI50 ([37]; Homo sapiens, SNB-19): 36.5 nM
Growth % (10^−5 M) ([37]; SNB-19, 10 μM): 28.03%
